Source: patent EP4722219A1 (Gan & Lee Pharmaceuticals Co., Ltd., priority 2023, dated 2024)

Key:
Assay type in all cases: cell-based
SMARCA2 [1] = molecular target: T1, SMARCA2 (Homo sapiens, UniProt P51531); assay: SMARCA2 degradation in HeLa cells (Western blot); set-up: endogenous in cells; settings: 4 hours
Method: (§1) Test Example 10 Degradation rate (%) of SMARCA2/4 by the PROTAC compounds of the present invention in HeLa cells and SW1573 cells
(§2) HeLa cells were seeded at 1.2 x 10^5 cells/well in a 6-well plate. 2 mL of EMEM medium supplemented with 10% FBS was added to each well and the culture dish was incubated overnight to allow the cells to adhere. The next day, 1 µL of 160 µM and 1 µL of 2 µM compound were added to the corresponding wells, resulting in final compound concentrations of 80 nM and 1 nM, respectively, and a final DMSO concentration of 0.05%. The cells were returned to the incubator and incubated for another 4 hours.
(§3) After 4 hours, cells were harvested, the culture medium was aspirated, and the cells were rinsed once with 1 mL/well PBS. The PBS was aspirated, and 40 µL/well of RIPA lysis buffer containing protease inhibitors was added. After lysis and centrifugation, total protein extracts were obtained, and protein concentration in the extracts was determined by BCA assay. Protein electrophoresis was performed by SDS-PAGE, followed by constant voltage electrophoresis at 100 V for 60 minutes and the protein was then transferred to a PVDF membrane. The PVDF membrane was blocked in 5% skim milk powder for 1 hour at room temperature. Primary antibodies (SMARCA2: CST#11966S, SMARCA4: CST#49360S, GAPDH: CST#5174S) were added and incubated overnight at 4°C. After washing the membrane, secondary antibodies were added and incubated at room temperature for 1 hour (protected from the light). After washing, the membrane was exposed using an Odyssey luminometer. Grayscale analysis of bands was performed using Image Studio software.
(§4) The degradation rate (%) of SMARCA2/4 by the PROTAC compounds of the present invention in HeLa cells and SW1573 cells is shown in Table 10. Table 10 Degradation rate of SMARCA2/4 by PROTAC compounds of the present invention in HeLa cells and SW1573 cells (%)

SMARCA4 [2] = molecular target: T2, SMARCA4 (Homo sapiens, UniProt P51532); assay: SMARCA4 degradation in SW1573 cells (Western blot); set-up: endogenous in cells; host or cells: SW1573; settings: 24 hours; for Dmax at 0.001 µM / Dmax at 0.08 µM: read-out: Degradation rate of SMARCA4 in SW1573 cells (%)
T2 sequence (P51532 whole entry): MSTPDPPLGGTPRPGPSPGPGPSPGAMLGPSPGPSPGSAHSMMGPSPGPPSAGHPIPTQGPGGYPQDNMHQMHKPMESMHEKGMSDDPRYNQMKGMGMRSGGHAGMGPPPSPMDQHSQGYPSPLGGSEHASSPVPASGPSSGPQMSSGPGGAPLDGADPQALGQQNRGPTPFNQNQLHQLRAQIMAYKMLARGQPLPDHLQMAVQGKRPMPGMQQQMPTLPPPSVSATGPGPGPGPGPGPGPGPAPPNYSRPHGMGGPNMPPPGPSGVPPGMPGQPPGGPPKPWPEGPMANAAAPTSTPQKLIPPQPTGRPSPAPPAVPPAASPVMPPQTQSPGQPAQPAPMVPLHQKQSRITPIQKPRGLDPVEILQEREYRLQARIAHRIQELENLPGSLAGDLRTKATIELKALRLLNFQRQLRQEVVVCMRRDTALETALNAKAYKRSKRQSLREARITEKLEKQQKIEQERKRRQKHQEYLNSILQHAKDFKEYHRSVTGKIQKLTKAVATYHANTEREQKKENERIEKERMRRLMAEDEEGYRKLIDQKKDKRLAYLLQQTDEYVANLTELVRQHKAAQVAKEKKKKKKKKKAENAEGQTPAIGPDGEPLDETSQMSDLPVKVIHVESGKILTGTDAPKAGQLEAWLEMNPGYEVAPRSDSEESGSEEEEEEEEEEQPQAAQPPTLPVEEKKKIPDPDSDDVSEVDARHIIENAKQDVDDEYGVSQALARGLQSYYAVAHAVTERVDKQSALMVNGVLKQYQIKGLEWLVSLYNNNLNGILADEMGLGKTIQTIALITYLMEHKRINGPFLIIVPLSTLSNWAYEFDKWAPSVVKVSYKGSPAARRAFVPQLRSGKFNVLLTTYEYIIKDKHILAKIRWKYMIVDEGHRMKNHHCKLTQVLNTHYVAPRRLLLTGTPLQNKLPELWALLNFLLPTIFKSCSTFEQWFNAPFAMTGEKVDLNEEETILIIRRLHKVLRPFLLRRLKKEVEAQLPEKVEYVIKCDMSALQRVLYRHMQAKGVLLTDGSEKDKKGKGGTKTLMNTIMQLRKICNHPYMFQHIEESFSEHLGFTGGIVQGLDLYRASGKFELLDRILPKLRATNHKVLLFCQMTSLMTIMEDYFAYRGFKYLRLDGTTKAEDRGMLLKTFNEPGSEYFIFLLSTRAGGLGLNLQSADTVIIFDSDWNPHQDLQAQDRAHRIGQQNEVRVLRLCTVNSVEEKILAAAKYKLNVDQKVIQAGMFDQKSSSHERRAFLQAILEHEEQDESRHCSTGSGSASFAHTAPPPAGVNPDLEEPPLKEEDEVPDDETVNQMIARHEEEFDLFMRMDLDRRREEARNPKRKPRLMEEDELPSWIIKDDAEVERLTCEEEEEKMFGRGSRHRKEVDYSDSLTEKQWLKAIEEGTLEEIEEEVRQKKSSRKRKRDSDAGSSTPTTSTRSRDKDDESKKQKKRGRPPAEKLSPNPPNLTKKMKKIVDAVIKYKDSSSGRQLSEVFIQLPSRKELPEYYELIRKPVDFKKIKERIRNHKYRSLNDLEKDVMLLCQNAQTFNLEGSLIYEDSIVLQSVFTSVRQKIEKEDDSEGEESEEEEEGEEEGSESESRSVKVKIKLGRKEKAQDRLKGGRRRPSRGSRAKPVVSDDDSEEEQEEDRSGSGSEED
Method: SW1573 cells were seeded at 2x10^5Cells/well in a 6-well plate. 2 mL of EMEM medium supplemented with 10% FBS was added to each well and was incubated overnight to allow cell attachment. […] The cells were returned to the incubator and incubated for another 24 hours.
as §3, with “After 24” for “After 4”, “the” for “the culture”, “temperature. […]” for “temperature. Primary antibodies (SMARCA2: CST#11966S, SMARCA4: CST#49360S, GAPDH: CST#5174S) were added and incubated overnight at 4°C.”
as §4

SMARCA4 [3] = molecular target: T2, SMARCA4; assay: SMARCA4 degradation in HeLa cells (Western blot); set-up: endogenous in cells; settings: 4 hours; for Dmax at 0.001 µM / Dmax at 0.08 µM: read-out: Degradation rate of SMARCA4 in HeLa cells (%)
Method: HeLa cells were seeded at 1.2 x 10^5 cells/well in a 6-well plate. 2 mL of EMEM medium supplemented with 10% FBS was added to each well and the culture dish was incubated overnight to allow the cells to adhere. […] The cells were returned to the incubator and incubated for another 4 hours.
as §3, with “Primary antibodies (SMARCA2: CST#11966S, SMARCA4: CST#49360S, GAPDH: CST#5174S) were added and incubated overnight at 4°C.” left out
as §4

SMARCA2 [4] = molecular target: T1, SMARCA2; assay: SMARCA2 degradation in SW1573 cells (Western blot); set-up: endogenous in cells; host or cells: SW1573; settings: 24 hours
Method: as §1
as §2, with “SW1573” for “HeLa”, “2x10^5Cells/well” for “1.2 x 10^5 cells/well”, “and” for “and the culture dish”, “cell attachment.” for “the cells to adhere.”, “wells for treatment,” for “wells,”, “24” for “4”
as §3, with “After 24” for “After 4”, “the” for “the culture”
as §4

T1 sequence (P51531 whole entry): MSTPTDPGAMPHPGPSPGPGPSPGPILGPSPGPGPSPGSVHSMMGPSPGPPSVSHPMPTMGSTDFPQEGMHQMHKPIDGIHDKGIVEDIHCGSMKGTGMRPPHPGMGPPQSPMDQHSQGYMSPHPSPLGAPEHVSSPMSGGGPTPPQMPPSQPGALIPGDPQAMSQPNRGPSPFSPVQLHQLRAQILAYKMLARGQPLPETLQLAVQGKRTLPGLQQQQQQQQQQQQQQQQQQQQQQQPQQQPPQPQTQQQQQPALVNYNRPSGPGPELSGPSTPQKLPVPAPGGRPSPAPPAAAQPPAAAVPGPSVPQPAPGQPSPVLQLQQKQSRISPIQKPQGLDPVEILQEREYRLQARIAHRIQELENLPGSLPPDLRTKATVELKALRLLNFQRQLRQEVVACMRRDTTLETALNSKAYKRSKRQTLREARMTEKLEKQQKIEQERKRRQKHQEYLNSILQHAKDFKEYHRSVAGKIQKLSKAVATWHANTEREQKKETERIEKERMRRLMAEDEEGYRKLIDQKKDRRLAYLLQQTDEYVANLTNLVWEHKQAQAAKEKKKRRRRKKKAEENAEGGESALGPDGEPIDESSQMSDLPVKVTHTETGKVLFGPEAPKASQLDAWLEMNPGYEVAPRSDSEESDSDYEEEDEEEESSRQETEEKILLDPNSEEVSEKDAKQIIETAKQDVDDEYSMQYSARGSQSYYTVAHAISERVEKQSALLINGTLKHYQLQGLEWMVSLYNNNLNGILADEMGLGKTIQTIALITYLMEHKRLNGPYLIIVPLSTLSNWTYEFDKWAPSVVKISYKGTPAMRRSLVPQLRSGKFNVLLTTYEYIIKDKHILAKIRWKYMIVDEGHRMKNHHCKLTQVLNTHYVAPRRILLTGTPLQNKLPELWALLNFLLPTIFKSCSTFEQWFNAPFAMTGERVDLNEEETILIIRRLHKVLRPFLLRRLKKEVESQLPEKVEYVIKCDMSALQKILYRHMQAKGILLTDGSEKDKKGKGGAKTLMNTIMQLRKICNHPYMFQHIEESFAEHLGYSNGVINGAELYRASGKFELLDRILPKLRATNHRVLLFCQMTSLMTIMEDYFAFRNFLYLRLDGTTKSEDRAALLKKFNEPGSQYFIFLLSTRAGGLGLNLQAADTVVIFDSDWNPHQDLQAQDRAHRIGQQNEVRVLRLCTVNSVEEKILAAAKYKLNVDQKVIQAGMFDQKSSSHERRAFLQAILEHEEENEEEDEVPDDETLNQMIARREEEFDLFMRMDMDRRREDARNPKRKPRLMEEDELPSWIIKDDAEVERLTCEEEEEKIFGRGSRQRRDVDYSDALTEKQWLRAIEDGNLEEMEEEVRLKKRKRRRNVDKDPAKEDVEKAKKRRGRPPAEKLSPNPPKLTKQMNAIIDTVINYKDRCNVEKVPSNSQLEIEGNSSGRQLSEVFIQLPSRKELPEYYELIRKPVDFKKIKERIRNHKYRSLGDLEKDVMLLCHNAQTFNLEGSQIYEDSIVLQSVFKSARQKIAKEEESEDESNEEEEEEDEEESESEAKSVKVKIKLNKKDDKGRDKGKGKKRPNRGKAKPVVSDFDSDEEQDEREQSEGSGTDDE

Compound | Degradation rate of SMARCA2 in HeLa cells (%) (SMARCA2 [1]; 1 nM) | Degradation rate of SMARCA2 in HeLa cells (%) (SMARCA2 [1]; 80 nM) | Degradation rate of SMARCA4 in SW1573 cells (%) (SMARCA4 [2]; 1 nM) | Degradation rate of SMARCA4 in SW1573 cells (%) (SMARCA4 [2]; 80 nM) | Degradation rate of SMARCA4 in HeLa cells (%) (SMARCA4 [3]; 1 nM) | Degradation rate of SMARCA4 in HeLa cells (%) (SMARCA4 [3]; 80 nM) | Degradation rate of SMARCA2 in SW1573 cells (%) (SMARCA2 [4]; 1 nM) | Degradation rate of SMARCA2 in SW1573 cells (%) (SMARCA2 [4]; 80 nM) | Dmax at 0.001 µM (SMARCA4 [2]; 1 nM) [%] | Dmax at 0.08 µM (SMARCA4 [2]; 80 nM) [%] | Dmax at 0.001 µM (SMARCA4 [3]; 1 nM) [%] | Dmax at 0.08 µM (SMARCA4 [3]; 80 nM) [%]
Nc1nnc(-c2ccccc2O)cc1C#CC1CCC2(CC1)CC(N1CCN3c4ccc(C(=O)N[C@H]5CCC(=O)NC5=O)cc4OC[C@@H]3C1)C2 (stereo partly drawn) [SM-P-20] | 23 | 86 | -56 | 22 | 32 | 65 | 12 | 76 | – | – | – | –
Nc1nnc(-c2ccccc2O)cc1C#CC1CCC2(CC1)CC(N1CC3(CCc4cc(F)c(C(=O)N[C@H]5CCC(=O)NC5=O)cc4O3)C1)C2 (stereo partly drawn) [SM-P-9] | 11 | 15 | – | – | – | – | 3 | 7 | -8 | -5 | -7 | 21
Nc1nnc(-c2ccccc2O)cc1C#CC1CCC2(CC1)CC(N1CCC3(CC1)COc1c3ccc(F)c1C(=O)N[C@H]1CCC(=O)NC1=O)C2 (stereo partly drawn) [SM-P-19] | 14 | 59 | 1 | 0 | -11 | 24 | 11 | 31 | – | – | – | –
Nc1nnc(-c2ccccc2O)cc1C#CC1CCC2(CC1)CC(N1CCC3(CC1)CCC1(CC3)COc3c1ccc1c3CN(C3CCC(=O)NC3=O)C1=O)C2 (stereo not drawn) [SM-P-2] | 95 | 98 | – | – | – | – | 98 | 100 | 94 | 100 | 92 | 99
Cn1c(=O)n(C2CCC(=O)NC2=O)c2cc3c(cc21)OC1(CC3)CCN(C2CC3(CCC(C#Cc4cc(-c5ccccc5O)nnc4N)CC3)C2)CC1 (stereo not drawn) [SM-P-1, 3-(1'-(7-((3-amino-6-(2-hydroxyphenyl)pyridazin-4-yl)ethynyl)spiro[3.5]nonan-2-yl)-3-methyl-2-oxo-2,3,7,8-tetrahydro-1H-spiro[chromeno[6,7-d]imidazole-6,4'-piperidin]-1-yl)piperidine-2,6-dione] | 90 | 100 | – | – | – | – | 72 | 96 | 43 | 97 | 85 | 98
Nc1nnc(-c2ccccc2O)cc1C#CC1CCC2(CC1)CC(N1CCC3(CCc4ccc(NC5CCC(=O)NC5=O)cc4O3)CC1)C2 (stereo not drawn) [SM-P-24, 3-((1'-(7-((3-amino-6-(2-hydroxyphenyl)pyridazin-4-yl)ethynyl)spiro[3.5]nonan-2-yl)spiro[chromane-2,4'-piperidin]-7-yl)amino)piperidine-2,6-dione] | -10 | 29 | – | – | – | – | -29 | -75 | 12 | 11 | -34 | -1
Nc1nnc(-c2ccccc2O)cc1C#CC1CCC2(CC1)CC(N1CCC3(CCc4cc(C(=O)N[C@H]5CCC(=O)NC5=O)c(F)cc4O3)CC1)C2 (stereo partly drawn) [SM-P-7] | 7 | 68 | – | – | – | – | 1 | 66 | -29 | 39 | -52 | 28
Nc1nnc(-c2ccccc2O)cc1C#CC1CCC2(CC1)CC(N1CCC3(CC1)Cc1ccc(NC4CCC(=O)NC4=O)cc1O3)C2 (stereo not drawn) [SM-P-25, 3-((1'-(7-((3-amino-6-(2-hydroxyphenyl)pyridazin-4-yl)ethynyl)spiro[3.5]nonan-2-yl)-3H-spiro[benzofuran-2,4'-piperidin]-6-yl)amino)piperidine-2,6-dione] | 10 | 53 | – | – | – | – | 11 | 50 | -21 | -10 | 6 | 42
Cn1c(=O)n(C2CCC(=O)NC2=O)c2ccc3c(c21)OCC31CCN(C(=O)[C@H]2CC[C@H](Cn3cc(-c4cc(-c5ccccc5O)nnc4N)cn3)CC2)CC1 (stereo partly drawn) [SM-P-27, 3-(1'-((1r,4r)-4-((4-(3-amino-6-(2-hydroxyphenyl)pyridazin-4-yl)-1H-pyrazol-1-yl)methyl)cyclohexane-1-carbonyl)-1-methyl-2-oxo-1,2-dihvdro-3H,7H-spiro[benzofuro[6,7-d]imidazole-6,4'-piperidin]-3-yl)piperidine-2,6-dione] | 51 | 90 | – | – | – | – | 59 | 88 | 40 | 82 | 22 | 79
